# Laboratory results as given in patent US9062078B2, “Substituted 7-azabicyles and their use as orexin receptor modulators” (priority 2013, dated 2015).
# Read-outs that look alike come from different tables or passages of the source.
# Key:
# rat orexin 1 receptor = rat orexin 1 receptor (Rattus norvegicus, UniProt P56718); experiment: Rat orexin 1 receptor radioligand binding (competitive, [3H]-SB674042, HEK293 cell preparations)
# human orexin 1 receptor = human orexin 1 receptor (Homo sapiens (Human), UniProt O43613); experiment: Human orexin 1 receptor radioligand binding (competitive, [3H]-SB674042, CHO cell preparations)
# human orexin 2 receptor = human orexin 2 receptor (Homo sapiens (Human), UniProt O43614); experiment: Human orexin 2 receptor radioligand binding (competitive, [3H]-EMPA, HEK293 cell preparations)
# [1] = rat orexin 1 receptor, [3H]-SB674042 competition binding, read-out: rOX1 Ki (nm)
# [2] = human orexin 1 receptor, [3H]-SB674042 competition binding, read-out: hOX1 Ki (nm)
# [3] = human orexin 2 receptor, [3H]-EMPA competition binding, read-out: hOX2 Ki (nm)
# human orexin 2 receptor, sequence (O43614 whole entry): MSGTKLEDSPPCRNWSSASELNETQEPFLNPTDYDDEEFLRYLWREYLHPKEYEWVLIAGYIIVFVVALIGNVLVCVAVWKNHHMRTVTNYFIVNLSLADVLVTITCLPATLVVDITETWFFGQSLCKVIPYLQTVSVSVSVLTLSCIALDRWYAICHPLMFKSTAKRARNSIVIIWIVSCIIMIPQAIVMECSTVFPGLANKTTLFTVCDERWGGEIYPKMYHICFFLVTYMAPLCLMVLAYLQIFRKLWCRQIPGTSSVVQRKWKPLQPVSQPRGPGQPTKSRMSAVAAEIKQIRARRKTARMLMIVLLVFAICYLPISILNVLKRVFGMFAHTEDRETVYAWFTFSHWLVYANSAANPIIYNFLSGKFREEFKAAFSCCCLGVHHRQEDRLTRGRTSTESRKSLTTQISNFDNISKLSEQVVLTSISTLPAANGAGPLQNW
# human orexin 1 receptor, sequence (O43613 whole entry): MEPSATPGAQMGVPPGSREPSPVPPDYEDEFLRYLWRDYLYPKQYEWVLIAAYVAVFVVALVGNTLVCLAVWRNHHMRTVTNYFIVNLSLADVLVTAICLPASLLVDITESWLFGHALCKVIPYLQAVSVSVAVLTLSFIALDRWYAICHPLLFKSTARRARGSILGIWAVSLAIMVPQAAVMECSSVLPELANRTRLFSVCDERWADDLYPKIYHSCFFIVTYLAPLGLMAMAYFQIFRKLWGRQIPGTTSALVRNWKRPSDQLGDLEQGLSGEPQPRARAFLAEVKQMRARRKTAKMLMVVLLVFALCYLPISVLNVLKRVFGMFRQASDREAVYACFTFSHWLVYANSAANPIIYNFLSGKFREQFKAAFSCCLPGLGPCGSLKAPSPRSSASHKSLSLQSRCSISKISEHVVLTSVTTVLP
SMILES,Ki (rat orexin 1 receptor; [1]) [µM],Ki (human orexin 1 receptor; [2]) [µM],Ki (human orexin 2 receptor; [3]) [µM],Ki (rat orexin 1 receptor; rOX1 Ki (nm)) [µM],Ki (human orexin 1 receptor; hOX1 Ki (nm)) [µM],Ki (human orexin 2 receptor; hOX2 Ki (nm)) [µM],Ki (rat orexin 1 receptor; read-out: rOX1 Ki (nm)) [µM],Ki (human orexin 1 receptor; read-out: hOX1 Ki (nm)) [µM]
"O=C(c1ccc(OC(F)F)cc1-n1nccn1)N1[C@@H]2CC[C@H]1[C@H](Nc1cnc(C(F)(F)F)cn1)C2 [Example 253, (4-(difluoromethoxy)-2-(2H-1,2,3-triazol-2-yl)phenyl)((1S,2R,4R)-2-((5-(trifluoromethyl)pyrazin-2-yl)amino)-7-azabicyclo[2.2.1]heptan-7-yl)methanone]",0.155,0.152,9.6,–,–,–,–,–
"Cc1ccc(-c2ncccn2)c(C(=O)N2C3CCC2C(Nc2ccc(Br)cn2)C3)n1 (racemic) [Example 217, (±)-(2-((5-bromopyridin-2-yl)amino)-7-azabicyclo[2.2.1]heptan-7-yl)(6-methyl-3-(pyrimidin-2-yl)pyridin-2-yl)methanone]",–,–,0.77,0.059,0.04,–,–,–
"O=C(c1ccccc1-n1nccn1)N1C2CCC1C(Nc1ccc(Cl)cn1)C2 (racemic) [Example 211, (±)-(2-(2H-1,2,3-triazol-2-yl)phenyl)(2-(((5-chloropyridin-2-yl)amino)-7-azabicyclo[2.2.1]heptan-7-yl)methanone]",–,–,1.8,0.11,0.055,–,–,–
"O=C(c1ccccc1-n1nccn1)N1C2CCC1C(Nc1cnc3ccccc3n1)C2 (racemic) [Example 204, (±)-(2-(2H-1,2,3-triazol-2-yl)phenyl)(2-(quinoxalin-2-ylamino)-7-azabicyclo[2.2.1]heptan-7-yl)methanone]",–,–,–,0.033,0.025,0.22,–,–
"O=C(c1cccc(F)c1-c1ncccn1)N1[C@@H]2CC[C@H]1[C@H](Nc1ccc(C(F)(F)F)cn1)C2 [Example 279, (3-fluoro-2-(pyrimidin-2-yl)phenyl)((1S,2R,4R)-2-((5-(trifluoromethyl)pyridin-2-yl)amino)-7-azabicyclo[2.2.1]heptan-7-yl)methanone]",–,–,–,0.015,0.008,1.1,–,–
"O=C(c1cccc(F)c1-c1ncccn1)N1C2CCC1C(COc1ccc(F)cn1)C2 (racemic) [Example 124, (±)-(3-fluoro-2-(pyrimidin-2-yl)phenyl)(−2-(((5-fluoropyridin-2-yl)oxy)methyl)-7-azabicyclo[2.2.1]heptan-7-yl)methanone]",–,–,0.355,0.083,0.052,–,–,–
"Cc1ccc(C(=O)N2C3CCC2C(COc2ccc(F)cn2)C3)c(-c2ncccn2)c1 (racemic) [Example 122, (±)-(2-(((5-fluoropyridin-2-yl)oxy)methyl)-7-azabicyclo[2.2.1]heptan-7-yl)(4-methyl-2-(pyrimidin-2-yl)phenyl)methanone]",0.118,0.154,1,–,–,–,–,–
"Cc1cc(-c2ccc(C)nc2C(=O)N2C3CCC2C(COc2ccccn2)C3)on1 (racemic) [Example 94, (±)-(6-methyl-3-(3-methylisoxazol-5-yl)pyridin-2-yl)(2-((pyridin-2-yloxy)methyl)-7-azabicyclo[2.2.1]heptan-7-yl)methanone]",0.17,0.2,2.1,–,–,–,–,–
"COc1ccc2cccnc2c1C(=O)N1C2CCC1C(COc1ccccn1)C2 (racemic) [Example 88, (±)-(7-methoxyquinolin-8-yl)(2-((pyridin-2-yloxy)methyl)-7-azabicyclo[2.2.1]heptan-7-yl)methanone]",0.047,0.049,0.69,–,–,–,–,–
"O=C(c1ccc(F)cc1-c1ncccn1)N1[C@@H]2CC[C@H]1[C@H](Nc1ccc(C(F)(F)F)cn1)C2 [Example 280, (4-fluoro-2-(pyrimidin-2-yl)phenyl)((1S,2R,4R)-2-((5-(trifluoromethyl)pyridin-2-yl)amino)-7-azabicyclo[2.2.1]heptan-7-yl)methanone]",–,–,1.3,–,–,–,0.039,0.037
"CCOc1ccc2ccccc2c1C(=O)N1C2CCC1C(COc1ccccn1)C2 (racemic) [Example 89, (±)-(2-ethoxynaphthalen-1-yl)(2-((pyridin-2-yloxy)methyl)-7-azabicyclo[2.2.1]heptan-7-yl)methanone]",0.011,0.01,0.038,–,–,–,–,–
"Cc1ccc(-n2nccn2)c(C(=O)N2C3CCC2C(COc2cccnc2)C3)n1 (racemic) [Example 58, (±)-(6-methyl-3-(2H-1,2,3-triazol-2-yl)pyridin-2-yl)(2-((pyridin-3-yloxy)methyl)-7-azabicyclo[2.2.1]heptan-7-yl)methanone]",–,–,2.4,0.088,0.117,–,–,–
"Cc1ccc(N2CCCC2)c(C(=O)N2C3CCC2C(COc2ccc(F)cn2)C3)n1 (racemic) [Example 68, (±)-(2-(((5-fluoropyridin-2-yl)oxy)methyl)-7-azabicyclo[2.2.1]heptan-7-yl)(6-methyl-3-(pyrrolidin-1-yl)pyridin-2-yl)methanone]",0.027,0.022,0.576,–,–,–,–,–
"Cc1ccc(-n2nccn2)c(C(=O)N2C3CCC2C(COc2ncccc2C)C3)n1 (racemic) [Example 176, (±)-(6-methyl-3-(2H-1,2,3-triazol-2-yl)pyridin-2-yl)(2-(((3-methylpyridin-2-yl)oxy)methyl)-7-azabicyclo[2.2.1]heptan-7-yl)methanone]",–,–,0.202,–,–,–,0.119,0.15
"Cc1ccc(-n2nccn2)c(C(=O)N2C3CCC2C(Nc2cnc(C(F)(F)F)cn2)C3)n1 (racemic) [Example 186, (±)-(6-methyl-3-(2H-1,2,3-triazol-2-yl)pyridin-2-yl)(2-(5-(trifluoromethyl)pyrazin-2-yl)amino)-7-azabicyclo[2.2.1]heptan-7-yl)methanone]",–,–,–,0.134,0.164,1.2,–,–
"Cc1cnc(C(=O)N2C3CCC2C(Nc2cnc(C(F)(F)F)cn2)C3)c(-n2nccn2)c1 (racemic) [Example 184, (±)-(5-methyl-3-(2H-1,2,3-triazol-2-yl)pyridin-2-yl)(2-(5-(trifluoromethyl)pyrazin-2-yl)amino)-7-azabicyclo[2.2.1]heptan-7-yl)methanone]",0.189,0.349,–,–,–,4.1,–,–
"CCOc1ccnc(OCC)c1C(=O)N1C2CCC1C(COc1ccccn1)C2 (racemic) [Example 163, (±)-(2,4-diethoxypyridin-3-yl)(2-((pyridin-2-yloxy)methyl)-7-azabicyclo[2.2.1]heptan-7-yl)methanone]",0.15,0.153,0.15,–,–,–,–,–
"Cc1cccc(OCC2CC3CCC2N3C(=O)c2nc(C)ccc2-n2nccn2)n1 (racemic) [Example 62, (±)-(6-methyl-3-(2H-1,2,3-triazol-2-yl)pyridin-2-yl)(2-(((6-methylpyridin-2-yl)oxy)methyl)-7-azabicyclo[2.2.1]heptan-7-yl)methanone]",0.074,0.046,–,–,–,0.188,–,–
"Cc1cccc(C(=O)N2[C@@H]3CC[C@H]2[C@H](Nc2ncc(C(F)(F)F)cn2)C3)c1-n1nccn1 [Example 272, (3-methyl-2-(2H-1,2,3-triazol-2-yl)phenyl)((1S,2R,4R)-2-((5-(trifluoromethyl)pyrimidin-2-yl)amino)-7-azabicyclo[2.2.1]heptan-7-yl)methanone]",–,–,0.742,–,–,–,0.021,0.026
"O=C(c1ccc(F)cc1-n1nccn1)N1C2CCC1C(COc1ccc(F)cn1)C2 (racemic) [Example 116, (±)-(4-fluoro-2-(2H-1,2,3-triazol-2-yl)phenyl)(2-(((5-fluoropyridin-2-yl)oxy)methyl)-7-azabicyclo[2.2.1]heptan-7-yl)methanone]",0.142,0.25,0.315,–,–,–,–,–
"Cc1cc(-c2ccc(C)nc2C(=O)N2C3CCC2C(COc2ccc(F)cn2)C3)on1 (racemic) [Example 69, (±)-(2-(((5-fluoropyridin-2-yl)oxy)methyl)-7-azabicyclo[2.2.1]heptan-7-yl)(6-methyl-3-(3-methylisoxazol-5-yl)pyridin-2-yl)methanone]",–,–,0.174,0.04,0.064,–,–,–
"Cn1cc(-c2ccccc2)c(C(=O)N2C3CCC2C(COc2ccccn2)C3)n1 (racemic) [Example 77, (±)-(1-methyl-4-phenyl-1H-pyrazol-3-yl)(2-((pyridin-2-yloxy)methyl)-7-azabicyclo[2.2.1]heptan-7-yl)methanone]",0.103,0.066,–,–,–,0.867,–,–
"Cc1ccc(C(=O)N2C3CCC2C(COc2ccc(F)cn2)C3)c(-n2nccn2)c1 (racemic) [Example 121, (±)-(2-(((5-fluoropyridin-2-yl)oxy)methyl)-7-azabicyclo[2.2.1]heptan-7-yl)(4-methyl-2-(2H-1,2,3-triazol-2-yl)phenyl)methanone]",0.078,0.068,0.34,–,–,–,–,–
"COc1ccc(-n2nccn2)c(C(=O)N2C3CCC2C(COc2ccc(F)cn2)C3)c1 (racemic) [Example 114, (±)-(2-(((5-fluoropyridin-2-yl)oxy)methyl)-7-azabicyclo[2.2.1]heptan-7-yl)(5-methoxy-2-(2H-1,2,3-triazol-2-yl)phenyl)methanone]",–,–,–,0.02,0.048,0.073,–,–
"Cc1ccnc(C(=O)N2C3CCC2C(COc2ccccn2)C3)c1-n1nccn1 (racemic) [Example 72, (±)-(4-methyl-3-(2H-1,2,3-triazol-2-yl)pyridin-2-yl)(2-((pyridin-2-yloxy)methyl)-7-azabicyclo[2.2.1]heptan-7-yl)methanone]",0.137,0.162,2.4,–,–,–,–,–
"O=C(c1cccc(F)c1-c1ncccn1)N1[C@@H]2CC[C@H]1[C@H](Nc1ncc(C(F)(F)F)cn1)C2 [Example 271, (3-fluoro-2-(pyrimidin-2-yl)phenyl)((1S,2R,4R)-2-((5-(trifluoromethyl)pyrimidin-2-yl)amino)-7-azabicyclo[2.2.1]heptan-7-yl)methanone]",–,–,2.3,–,–,–,0.041,0.042
